In US20140328861A1, “Combination of CRTH2 Antagonist and a Proton Pump Inhibitor for the Treatment of Eosinophilic Esophagitis” (Atopix Therapeutics Limited, priority 2011, published 2014):

Test system: patients with active eosinophilic esophagitis (esophageal eosinophil load)
Experiment: 8 week randomized, double-blind, placebo-controlled study in patients with active eosinophilic esophagitis
Format: in vivo, human
Protocol: The study was a randomized, double-blind, placebo-controlled, single-center study of (5-fluoro-2-methyl-3-quinolin-2-ylmethyl-indo-1-yl)-acetic acid (OC000459) for 8 weeks in patients with active (≧20 eos/hpf and symptoms), corticosteroid-dependent, and/or -resistant eosinophilic esophagitis (EoE). The study compared patients taking 100 mg of OC000459 twice daily with patients taking a placebo twice daily. The study consisted of 26 patients with 14 patients taking OC000459 and 12 patients taking the placebo. Pre- and post-treatment disease-activity was assessed clinically, endoscopically, histologically, and via biomarkers. The primary endpoint was the reduction of the esophageal eosinophil load.
5. Free of all medications for EoE (including topical steroids) for at least 2 weeks prior to baseline and free of systemic steroids for at least 90 days before screening. A proton-pump inhibitor is allowed if required for treatment of secondary acid reflux.
After an 8-week treatment of active EoE with OC000459, the total mean eosinophil number decreased from 114.7 to 74.2 eos/hpf, whereas under placebo, no reduction was observed (from 102.8 to 99.4 eos/hpf).
A possible explanation for this is that acid reflux may be responsible for the eosinophilic inflammation in the distal esophagus which is consistent with reports that eosinophilia is reduced by PPIs in some patients with EoE (Molina-Infante et al., 2011). […] It is therefore proposed that the combination of CRTH2 antagonists with PPIs will be effective in the treatment of EoE by blocking both the allergic and acid reflux pathways. Three patients were treated with both OC000459 and esomeprazole, either 20 mg or 40 mg once a day.

Cc1c(Cc2ccc3ccccc3n2)c2cc(F)ccc2n1CC(=O)O [OC000459, (5-fluoro-2-methyl-3-quinolin-2-ylmethyl-indo-1-yl)-acetic acid]
effect on eosinophil load, proximal versus distal esophagus (8 weeks, 100 mg twice daily, compared to placebo (FIG. 1)): more pronounced in the proximal upper esophagus than in the distal esophagus | eosinophilic load in the distal esophagus (patients with EoE, 8 weeks): not | eosinophilic load in the proximal esophagus (patients with EoE, 8 weeks): reduces eosinophilic load | total mean eosinophil number, after 8-week treatment (patients with active EoE, 100 mg twice daily, 8 weeks): 74.2 eos/hpf | total mean eosinophil number, before treatment (patients with active EoE, baseline, 100 mg twice daily group): 114.7 eos/hpf
